Test results reported in patent publication US20250188123A1, “PROTEASE INHIBITORS” (Regents of the University of Minnesota, priority 2022, published 2025).

Assays:
Human recombinant Casp7 = target: T1, Human recombinant Casp7 (Homo sapiens, UniProt P55210); assay: In vitro caspase panel assay, Casp7; format: biochemical; details: Casp2 over Casp7, caspase panel
T1 construct: purchased BioVision (Milpitas/CA, USA)
T1 sequence (P55210 1-303): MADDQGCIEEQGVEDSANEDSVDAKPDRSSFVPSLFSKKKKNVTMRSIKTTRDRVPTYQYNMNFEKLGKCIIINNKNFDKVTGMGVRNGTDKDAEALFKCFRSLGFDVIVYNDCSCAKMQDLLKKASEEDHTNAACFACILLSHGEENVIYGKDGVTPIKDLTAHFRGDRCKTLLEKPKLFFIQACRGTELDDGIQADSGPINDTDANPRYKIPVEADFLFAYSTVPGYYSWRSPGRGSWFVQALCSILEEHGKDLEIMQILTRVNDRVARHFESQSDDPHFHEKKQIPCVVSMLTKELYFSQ
Source text: (§1) Human recombinant Casp1, 6, 7, and 9 were purchased from BioVision (Milpitas/CA, USA). AFC fluorogenic substrates and control peptides (AcYVAD-CHO, AcVDVAD-CHO, AcDEVD-CHO, AcVEID-CHO, and AcLEHD-CHO) were purchased from Bachem (Torrance/CA, USA). The pET23b vector encoding human caspase-3 was a gift of Dr. Michelle Arkin at University of California, San Francisco. Expression and purification of Casp3 was guided by previously described protocols (Denault J-B, Salvesen G S., Current Protocols in Protein Science, 2002, 30(1), 21.13. 1-21.13. 15). Briefly, the plasmid was transformed into E. coli Rosetta 2 pLyss DE3 cells that were cultured at 1 L scale in shake flasks. […] The typical yield for the expression, isolation, and purification was approximately 3 mg/L. The DNA encoding human caspase-2 (hCASP2, amino acids 170-452, free of the N-terminal caspase activation and recruitment domain) open reading frame (ORF) was amplified via polymerase chain reaction (PCR) from full-length hCASP2 cDNA (Origene, Rockville, MD; Cat #SC321316) using following primers: forward, 5′-[…]-3′; reverse, 5′-[…]-3′. […] Proteins were stored in 1× phosphate-buffered saline (pH 7.4) at 10 mg/mL (concentration determined using a BCA assay (Thermo Fisher Scientific)), −80° C. until further use. […]

Human recombinant Casp1 = target: T2, Human recombinant Casp1 (Homo sapiens, UniProt P29466); assay: In vitro caspase panel assay, Casp1; format: biochemical; details: Casp2 over Casp1, caspase panel
T2 construct: purchased BioVision (Milpitas/CA, USA)
T2 sequence (P29466 120-404): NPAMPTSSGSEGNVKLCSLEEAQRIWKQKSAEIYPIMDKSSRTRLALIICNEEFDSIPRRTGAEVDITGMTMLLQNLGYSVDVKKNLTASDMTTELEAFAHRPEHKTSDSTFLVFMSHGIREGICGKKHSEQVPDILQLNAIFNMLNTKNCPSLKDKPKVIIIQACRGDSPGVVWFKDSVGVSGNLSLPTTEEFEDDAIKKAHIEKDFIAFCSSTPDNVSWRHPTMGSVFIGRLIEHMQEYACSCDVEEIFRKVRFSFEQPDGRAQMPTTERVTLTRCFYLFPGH
Source text: as §1

SMILES: Cc1ccc2c(c1)CCN(C(=O)[C@@H](NC(=O)[C@H](CCCC(=O)O)NC(=O)C1Cc3ccccc3N1)C(C)C)[C@@H]2C(=O)N[C@H](C#N)CC(=O)O (stereo partly drawn) [Compound 1, (8)-6-(((S)-1-((8)-1-(((S)-2-carboxy-1-cyanoethyl)carbamoyl)-6-methyl-3,4-dihydroisoquinolin-2(1H)-yl)-3-methyl-1-oxobutan-2-yl)amino)-5-((S)-indoline-2-carboxamido)-6-oxohexanoic acid]
- selective versus Casp7 (Human recombinant Casp7): > 2000 fold
- selective versus Casp1 (Human recombinant Casp1): > 2000 fold
